Results as given in patent US20260137638A1, “STAT3 INHIBITORS FOR USE IN THE TREATMENT OF NON-VIRAL LIVER CANCER” (Tyardi Operating Company, Inc., priority 2022, published 2026).

Test system: HCC
Test: Safety and efficacy study of TTI-101 in advanced solid tumors: best response (RECIST v1.1) in HCC participants
Format: in vivo, human
Conditions: for time partial response was sustained / best response: reduction in the sum of overall RECIST targets: non-viral HCC
Protocol: This study evaluates the safety and efficacy of TTI-101 in advanced solid tumors. TTI-101 was administered twice daily at doses of 1.6 (Cohort 1; n=4), 3.2 (Cohort 2; n=3), or 6.4 mg/kg/dose (Cohort 3; n=8) of a Labrasol/PEG400 formulation (60:40% v/v) or 6.4 mg/kg/dose (Cohort 3a: n=37) or 12.8 mg/kg/dose (Cohort 4; n=10) of oral capsule formulation (composition comprising TTI-101 at a concentration of 92 mg/g in a mixture of Kolliphor RH 40 (PEG-40 hydrogenated castor oil). PEG600. Polysorbate 20, Labrasol, and citric acid). TTI-101 was administered twice daily at 6.4 mg/kg/dose (Cohort 5; n=7) of oral tablet formulation (comprising 200 mg of TTI-101).
These patients had failed all prior lines of therapy (median number of prior therapies=3). Furthermore, a disease control rate (defined as the proportion of patients in whom the best overall response is determined as complete response, partial response or stable disease according to RECIST v1.1) of 60% has been observed in the 15 heavily pre-treated HCC patients (9/15), which is similar to that reported with sorafenib in first-line therapy.

[1] = number of participants, 7 non-viral HCC participants
[2] = number of participants, 8 viral HCC participants
[3] = number of participants, all 15 evaluable HCC participants

COc1ccc(S(=O)(=O)Nc2cc(-c3c(O)ccc4ccccc34)c(O)c3ccccc23)cc1 [TTI-101, N-(1′,2-dihydroxy-1,2′-binaphthalen-4′-yl)-4-methoxybenzenesulfonamide]
Disease Control Rate, HCC (non-viral) (7 non-viral HCC participants): 57%
Disease Control Rate, HCC (viral) (8 viral HCC participants): 63%
time partial response was sustained (Participant A, 6.4 mg/kg/day): 11 months
best response: reduction in the sum of overall RECIST targets (Participant A, 6.4 mg/kg/day, failed sorafenib, pembrolizumab, nivolumab, nivolumab+bevacizumab): 42%
time partial response was sustained (Participant B, 12.8 mg/kg/day): 14 months
best response: reduction in the sum of overall RECIST targets (Participant B, 12.8 mg/kg/day, failed lenvatinib and nivolumab): 66%
best response: reduction in the sum of overall RECIST targets (Participant C, 12.8 mg/kg/day, failed atezolizumab+bevacizumab): 45%
Disease Control Rate, HCC (complete response, partial response or stable disease by RECIST v1.1, 15 heavily pre-treated HCC patients (9/15)): 60%
Progressive Disease, HCC (non-viral) [1]: 3
Stable Disease, HCC (non-viral) [1]: 1
Partial Response, HCC (non-viral) (number of participants, 7 non-viral HCC participants, TTI-101 monotherapy): 3
Progressive Disease, HCC (viral) [2]: 3
Stable Disease, HCC (viral) [2]: 5
Partial Response, HCC (viral) (number of participants, 8 viral HCC participants, TTI-101 monotherapy): 0
Progressive Disease, HCC [3]: 6
Stable Disease, HCC [3]: 6
Partial Response, HCC (number of participants, all 15 evaluable HCC participants, TTI-101 monotherapy, after two 28-day cycles, radiologically confirmed): 3
